Test results taken from patent US7605121B2, “Oligopeptide lyophilisate, their preparation and use” (AEterna Zentaris GmbH, priority 1993, dated 2009).
Where a SMILES comes first, the peptide text is derived from it. [ ]: non-standard residue; d: D form. dPhe(4-Cl) = N[C@H](Cc1ccc(Cl)cc1)C(=O)O; d2Nal = N[C@H](Cc1ccc2ccccc2c1)C(=O)O; dCit = NC(=O)NCCC[C@@H](N)C(=O)O; d3Pal = N[C@H](Cc1cccnc1)C(=O)O

Experiments:
[1] = system: endogenous hormone production (LH-FSH, oestradiol); assay: Suppression of endogenous hormone production in in-vitro fertilization treatment; type: in vivo, patients; conditions: treatment over 5 days; female sterility / in-vitro fertilization
Excerpt: The premature LH peaks cannot arise and the frequency of hyperstimulation syndrome should be reduced. In addition, less HMG is used in the 2nd phase of therapy, the ovulation triggering phase. This gives this in-vitro fertilization treatment a not inconsiderable cost advantage. In-vitro fertilization is, for example, used when a tube anomaly is present. To perform this treatment it is necessary to precisely monitor the cycle and to establish the time of ovulation as precisely as possible. This has hitherto only been achieved to a limited extent since preovulatory LH increase often occurred too early due to simulation with HMG/HCG, or was not maintained for a sufficiently long period. Avoidance of this premature increase is, however, of critical importance for the success of the treatment in order to precisely determine the time of fertilization. This reduces the physical and mental burden on the patient and makes optimum use of hospital logistics. To achieve this objective with great reliability it is necessary to suppress endogenous hormone production (LH-FSH, oestradiol) as completely as possible in order to simultaneously stimulate follicle maturation through administration of exogenous gonadotrophins (HMG/HCG) and to monitor the hormone status at any time. […]

[2] = Hydrolysis of terminal amide group in acid medium; type: physicochemical; conditions: acid medium (acetic acid solution)
Method: (§1) The solution is then diluted to a final concentration of 3% peptide, e.g., cetrorelix, with water for injection purposes and mannitol is added. Although it is stated in the literature that the terminal amide group hydrolyzes easily in acid medium, this was not found in the case of cetrorelix. Solutions prepared according to this method caused no difficulties during filtration. The correct amounts of active substance were always found.

[3] = Dissolution in 30% volume/volume acetic acid; type: physicochemical
Method: as §1

[4] = Stability of aqueous solution / conventional sterilization; type: physicochemical
Method: It should be possible to administer the active substance subcutaneously in a dose of 0.1 to 20 mg. Aqueous solutions of the decapeptide are unstable, and, therefore, autoclaving in the container used to distribute it is not possible. […] To obtain an injectable solution it was therefore necessary to develop a lyophilizate.

## CC(=O)N[C@H](Cc1ccc2ccccc2c1)C(=O)N[C@H](Cc1ccc(Cl)cc1)C(=O)N[C@H](Cc1cccnc1)C(=O)N[C@@H](CO)C(=O)N[C@@H](Cc1ccc(O)cc1)C(=O)N[C@H](CCCNC(N)=O)C(=O)N[C@@H](CC(C)C)C(=O)N[C@@H](CCCNC(=N)N)C(=O)N1CCC[C@H]1C(=O)N[C@H](C)C(N)=O [Cetrorelix] (Ac-[d2Nal][dPhe(4-Cl)][d3Pal]SY[dCit]LRP[dA]-NH2)
[1]
  Suppression achieved: total suppression
[2]
  Hydrolysis of terminal amide group: not found
[3]
  Solubility in acetic acid: easily dissolved
[4]; aqueous solution, autoclaving in the container not possible
  Stability of aqueous solutions: unstable
[4]; conventional sterilization, prescribed conditions
  Behaviour during conventional sterilization: tends to decompose
